The values below come from patent US20240384268A1, “Oligonucleotides” (Hudson Institute of Medical Research, priority 2021, published 2024).

In the oligonucleotide strings, read from the 5' end, every base follows the letter of its sugar. An asterisk marks phosphorothioate; unmarked linkages are phosphodiester. Other units and linkages are bracketed, terminal groups are in braces. A string of capitals states the bases alone. d = 2'-deoxy (DNA); m = 2'-O-methyl

One series has as its target T1, mouse cGAS (Mus musculus, UniProt Q8C6L5).
T1 construct: endogenous in cells; host or cells: LL171 (mouse L929 cells with ISRE-Luciferase)
The series is described as follows: ISD45-driven ISRE-luciferase in mouse LL171 cells. The series is classed as cell-based. To be noted: for effect on ISD-driven ISRE-luciferase, LNA and MOE ASOs (in words): 200 nM or indicated concentrations, ~30 min, ISD overnight (FIG. 22-24); for inhibition of ISD45-driven ISRE-luciferase (in words): 2′OMe or PS oligos 50-600 nM, ISD45 2.5 μg/ml overnight. On the procedure:
In such examples, inhibition of cGAS activity can be identified by observation of an overall decreased cGAS response of the cell population, or a lower proportion of cells having cGAS-positive activity as compared to positive control condition in which cells are treated with cGAS agonist in the absence of the oligonucleotide (or in the presence of an appropriate control inhibitory agent). In one example, THP-1 or HT-29 cells are transfected with ISD70 and incubated with an oligonucleotide. cGAS activity can then be determined by cytokine (e.g., IP-10 and/or IFNβ) expression (e.g., gene and/or protein expression) and/or secretion levels, such as by ELISA. A similar assay can be performed with LL171 cells transfected with ISD45. […] By way of example, cGAS enzymatic activity may be assessed in vitro using recombinant cGAS and then measuring activity thereof by way of a cGAMP ELISA.
For cGAS stimulations, cells were treated for indicated duration with ASOs, prior to transfection with ISD70 (human cells) or ISD45 (mouse cells) (the ASOs were not washed off prior to ISD transfection unless otherwise indicated). The cGAS ligands ISD45 (Stetson and Medzhitov, 2006) and ISD70 (also known as VACV-70 (Unterholzner et al., 2010)) (Table 1) were resuspended as follows: 5 1d of sense and 5 μl of antisense strands at 10 μg/μl were added to 90 μl PBS under sterile conditions, heated at 75° C. for 30 min, prior to letting cool down at room temperature and aliquoting (stock at 1 μg/1 l). The ISDs were transfected at a concentration of […] at a ratio of 1 μg:1 μl with Lipofectamine 2000 in Opti-MEM (Thermo Fisher Scientific). HEK-TLR3, HEK-TLR7 and […] were treated with indicated concentration of ASOs for 20-50 min, prior to stimulation with poly(I:C) (Invivogen), R848 (Invivogen), Motolimod (MedChemExpress) and the Class B CpG oligonucleotides ODN 2006 (synthesised by IDT and resuspended in RNase-free TE buffer [Table 1]), respectively. The TLR2/1 agonist PAM3CSK4 (Invivogen), the TLR4 agonist lipopolysaccharide (Invivogen), the Class B CpG oligonucleotides ODN 1826 (synthesised by IDT and resuspended in RNase-free TE buffer), the mouse Sting agonist DMXAA (Cayman) and the human STING agonist (compound #3 from (Raanjulu et al., 2018), referred to as GSK herein—kind gift from Cancer Therapeutics CRC, Australia) were used at indicated concentrations. Aspirin (Sigma—A2093) was resuspended in pure medium to 10 mM, filter sterilised and added to the cells at 2 mM final. All ASOs were synthesised by Integrated DNA Technologies (IDT), and resuspended in RNase-free TE buffer, pH 8.0 (Thermo Fisher Scientific). Cell viability was assessed by adding 1× fresh resazurin solution to the wells (10λ solution made up with 7 mg resazurin [Sigma—R7017] dissolved in 3.5 ml PBS, sterile filtered at […]) for 4 h, prior to reading at with a Fluostar OPTIMA (BMG LABTECH) plate-reader (fluorescence: Excitation 535 nm, Emission 590); wells with medium only and 1× resazurin were used as blanks.
Following transfection, the cells were collected from the 6-wells and aliquoted into 96-wells, just before ASO and overnight TLR stimulation (as above described).

For another series, the target named is cGAS (Mus musculus, UniProt Q8C6L5). The series is described as follows: IFN-driven gene expression in Trex1-mutant primary BMDMs, RT-qPCR. To be noted: 50 nM ASO transfected 20 h.
Chain of cGAS (Q8C6L5 whole entry): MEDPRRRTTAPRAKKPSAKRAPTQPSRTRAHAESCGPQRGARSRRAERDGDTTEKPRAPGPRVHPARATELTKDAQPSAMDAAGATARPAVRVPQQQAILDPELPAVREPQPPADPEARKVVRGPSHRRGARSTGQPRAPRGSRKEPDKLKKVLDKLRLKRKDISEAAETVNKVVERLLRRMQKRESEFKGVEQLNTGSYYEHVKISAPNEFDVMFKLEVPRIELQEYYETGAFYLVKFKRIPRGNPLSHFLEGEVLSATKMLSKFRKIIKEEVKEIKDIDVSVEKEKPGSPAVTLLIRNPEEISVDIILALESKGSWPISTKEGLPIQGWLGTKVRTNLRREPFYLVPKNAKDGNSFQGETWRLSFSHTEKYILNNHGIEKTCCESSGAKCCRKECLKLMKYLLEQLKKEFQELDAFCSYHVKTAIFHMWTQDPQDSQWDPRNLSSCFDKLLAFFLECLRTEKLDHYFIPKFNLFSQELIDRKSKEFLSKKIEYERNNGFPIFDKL
Series [1] concerns the target T2, TLR7 (Mus musculus, UniProt P58681).
T2 sequence (P58681 27-1050): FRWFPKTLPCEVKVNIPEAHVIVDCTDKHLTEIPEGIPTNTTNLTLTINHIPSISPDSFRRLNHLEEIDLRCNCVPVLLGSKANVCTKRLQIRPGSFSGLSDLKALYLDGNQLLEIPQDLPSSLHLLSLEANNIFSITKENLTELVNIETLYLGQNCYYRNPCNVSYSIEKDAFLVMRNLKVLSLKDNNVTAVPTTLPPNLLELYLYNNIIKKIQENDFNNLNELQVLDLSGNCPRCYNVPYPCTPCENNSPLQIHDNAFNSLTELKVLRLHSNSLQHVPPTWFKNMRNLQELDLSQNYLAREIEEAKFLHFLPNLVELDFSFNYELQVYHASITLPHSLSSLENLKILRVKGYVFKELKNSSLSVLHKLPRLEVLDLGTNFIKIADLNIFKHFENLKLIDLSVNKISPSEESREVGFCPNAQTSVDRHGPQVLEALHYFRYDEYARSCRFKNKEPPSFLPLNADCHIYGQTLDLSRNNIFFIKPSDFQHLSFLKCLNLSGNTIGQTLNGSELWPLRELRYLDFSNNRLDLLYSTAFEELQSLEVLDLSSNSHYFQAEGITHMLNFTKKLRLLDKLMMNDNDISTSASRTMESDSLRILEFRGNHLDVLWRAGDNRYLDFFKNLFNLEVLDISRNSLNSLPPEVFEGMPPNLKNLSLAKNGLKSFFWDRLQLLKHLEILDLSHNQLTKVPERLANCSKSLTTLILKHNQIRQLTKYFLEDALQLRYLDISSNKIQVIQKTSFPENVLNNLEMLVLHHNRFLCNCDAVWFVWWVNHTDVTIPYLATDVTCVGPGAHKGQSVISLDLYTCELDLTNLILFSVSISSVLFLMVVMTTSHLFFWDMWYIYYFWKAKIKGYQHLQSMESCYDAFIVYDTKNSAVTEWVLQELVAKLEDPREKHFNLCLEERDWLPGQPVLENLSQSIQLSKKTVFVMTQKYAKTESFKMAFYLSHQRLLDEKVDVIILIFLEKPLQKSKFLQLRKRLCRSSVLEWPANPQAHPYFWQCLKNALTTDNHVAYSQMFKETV
The series is described as follows: Guanosine-induced TNFα in primary BMDMs. On the set-up: endogenous in cells; host or cells: primary BMDMs from wild-type mice. Particulars: WT primary BMDMs; 200 nM ASO 30 min; 500 μM Guanosine overnight. The series is classed as cell-based.

In series [2] the target is T2, TLR7. The series is described as follows: B-406-AS ssRNA-induced TNFα in primary BMDMs. Particulars: WT primary BMDMs; 100 nM ASO 1 h; 250 nM B-406-AS RNA overnight; vs dC20 co-treatment.

T1 sequence (Q8C6L5 whole entry): as the sequence (Q8C6L5 whole entry) above

Take “GCAGGCTCAGTGATGT (antisense; LNA-modified, pattern not given here) [CTNN2B-1642 LNA V1]”: the “effect on ISD-driven ISRE-luciferase, LNA and MOE ASOs (in words)” value in the series with mouse cGAS is given as “increased potentiation of ISD sensing”.
The same measure, in the same setting: the entry for “GTGTCTGGAAGCTTCC (antisense; LNA-modified, pattern not given here) [CTNN2B-809 LNA V1]” is “strongly potentiating the ISRE-Luciferase signal”.
As for “T*T*A* G*G*G* T*T*A* G*G*G* T*T*A* G*G*G* T*T*A* G*G*G [A151, reference compound]”, the “basal expression of ISGs (Rsad2, Ifit1) in Trex1-mutant BMDMs (in words)” value in the series with cGAS is on record as “failed to inhibit these ISGs”.
Take “mC*mG*mU*T*T*C*C*C*C*C*C*C*C*C*C*C*C*C*C*C (CGUTTCCCCCCCCCCCCCCC; antisense; sugars from the 5' end m3 d17, all phosphorothioate, methylation of C not given here) [[C2]Mut1-v3-dC]”: the “inhibition of ISD45-driven ISRE-luciferase (in words)” value (“inhibition” below) in the series with mouse cGAS is “lacked significant inhibitory activity”. For the same substance, in the series with TLR7 [1], the “TNFα production induced by guanosine (in words)” value was “did not”.
“mG*mC*mG*mG*mU*A*T*C*C*A*T*G*T*C*C*mC*mA*mG*mG*mC (mG*mC*mG*mG*mU*dA*dT*dC*dC*dA*dT*dG*dT*dC*dC*mC*mA*mG*mG*mC; antisense) [C2-Mut1]”: in the series with mouse cGAS, the “inhibition” value is listed as “significantly more inhibitory”. Also, the “TNFα production induced by ssRNA sensing (in words)” value in the series with TLR7 [2] is given as “significantly reduced TNFα production”. In the series with TLR7 [1], the “TNFα production induced by guanosine (in words)” value was “significantly inhibiting TNFα levels”. The “basal expression of ISGs (Rsad2, Ifit1) in Trex1-mutant BMDMs (in words)” value with cGAS is “significantly decreased the basal expression of two ISGs”.
Turning to “mG*mG*mU*A*T*C*C*C*C*C*C*C*C*C*C*C*C*C*C*C (GGUATCCCCCCCCCCCCCCC; antisense; sugars from the 5' end m3 d17, all phosphorothioate, methylation of C not given here) [[C2]Mut1-dC]”, in the series with mouse cGAS, the “inhibition” value was “significantly more inhibitory than its precursor dC20”. For the same substance, the “TNFα production induced by ssRNA sensing (in words)” value with TLR7 [2] is “significantly reduced TNFα production”. Also, the “TNFα production induced by guanosine (in words)” value with TLR7 [1] is listed as “significantly inhibiting TNFα levels”.
